Here are results for 2 molecules from patent publication US20240326041A1, “MICROFLUIDIC INDUCTION OF RESEARCH BASED NEURAL INJURY” (Worcester Polytechnic Institute, priority 2023, published 2024).

The test system of test [1] is C. elegans. Kind of test: Behavioral state after sonication-induced traumatic injury in microfluidic device. Type of test: in vivo. The conditions noted are these: 2 hour pre-exposure to 1 mM NAC; initial behavioral data.
Procedure: To injure animals, a continuous flow of buffer fluid is pumped through a microfluidic device 120 having serpentine microchannels in a bath sonicator-induced cavitation field. Animals are trapped in the flow and directed through the cavitation field. Exposure time is determined by channel length and flow velocity. […] Animals are recovered on an agar plate 130 for further transfer and analysis using widefield or high-resolution microscopy, or encapsulated in hydrogel and assessed over time in presence of various pharmacological agents. […] A batch of test subjects is isolated and introduced via the buffer fluid 114 and suitable coupling 116, as depicted at step 404. The microfluidic device 120 including the post array 140 receives the test subjects 152-N, as shown at step 406. Computer-controlled bath sonication induces titratable cavitation conditions within a microfluidic post-array 140. […] Upon removal, animals may be assessed visually for behavioral state according to the following definitions: • Paralysis: movement phenotype characterized by no obvious gross bodily movement. • Twitch: movement phenotype characterized by shaking or convulsions of the body or a substantial part of the main body of the animal.
Test [2] has as its system C. elegans. Kind of test: Recovery of neural activity (AWA calcium imaging) after sonication-induced injury. In kind it is in vivo. Conditions: wild-type C. elegans, NAC-induced recovery. On the procedure:
FIGS. 8A-8C show results of test substances for treatment of an injury induced by the microfluidic device of FIGS. 1-4. Referring to FIGS. 8A-8C, one approach to therapeutic and/or prophylactic neural treatment includes two chemical agents that are diluted to physiological concentrations and administered in liquid form to the test animals using their food. Drug compositions are applied for a series of several hours to allow the biological function of the composition to manifest. Animals are removed from drug administration and allowed to immobilize under anesthetic for a period of ˜60 minutes in a microfluidic device before being injured. […] The described action of the drug composition is to inhibit the ability of calcium influx channels to operate for a period of time before and during the injury, allowing later recovery of the neuron response when the action of the drug composition ceases.

The next test deals with rTRPV4 (Rattus norvegicus, UniProt Q9ERZ8). The conditions noted are these: commercially available TRPV4 antagonist, vendor description; cited from earlier work.
Sequence of rTRPV4 (Q9ERZ8 whole entry): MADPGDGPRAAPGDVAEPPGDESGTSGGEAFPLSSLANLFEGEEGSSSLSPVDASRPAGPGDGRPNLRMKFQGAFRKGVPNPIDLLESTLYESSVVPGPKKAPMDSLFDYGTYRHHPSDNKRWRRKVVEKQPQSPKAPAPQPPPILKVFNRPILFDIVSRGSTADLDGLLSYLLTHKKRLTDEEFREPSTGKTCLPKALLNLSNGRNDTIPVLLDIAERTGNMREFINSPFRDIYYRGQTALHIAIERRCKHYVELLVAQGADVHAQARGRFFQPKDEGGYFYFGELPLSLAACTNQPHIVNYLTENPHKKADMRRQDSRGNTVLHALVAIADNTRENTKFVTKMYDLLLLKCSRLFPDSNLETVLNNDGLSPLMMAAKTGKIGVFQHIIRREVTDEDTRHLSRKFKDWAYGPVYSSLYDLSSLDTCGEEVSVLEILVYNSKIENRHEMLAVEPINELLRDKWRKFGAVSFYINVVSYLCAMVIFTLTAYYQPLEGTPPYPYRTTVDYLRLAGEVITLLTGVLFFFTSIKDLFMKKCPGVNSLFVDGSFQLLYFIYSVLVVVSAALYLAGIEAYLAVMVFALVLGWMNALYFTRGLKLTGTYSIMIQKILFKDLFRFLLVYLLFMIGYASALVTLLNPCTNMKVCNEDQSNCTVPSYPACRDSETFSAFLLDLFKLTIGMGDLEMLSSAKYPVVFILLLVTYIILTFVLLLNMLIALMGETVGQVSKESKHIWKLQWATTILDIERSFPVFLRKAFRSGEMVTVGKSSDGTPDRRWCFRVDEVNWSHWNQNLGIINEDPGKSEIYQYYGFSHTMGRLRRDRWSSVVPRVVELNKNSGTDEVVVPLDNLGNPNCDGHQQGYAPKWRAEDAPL
In another test the target is hTRPV4 (Homo sapiens, UniProt Q9HBA0). The conditions noted are these: commercially available TRPV4 antagonist, vendor description; cited from earlier work.
Sequence of hTRPV4 (Q9HBA0 whole entry): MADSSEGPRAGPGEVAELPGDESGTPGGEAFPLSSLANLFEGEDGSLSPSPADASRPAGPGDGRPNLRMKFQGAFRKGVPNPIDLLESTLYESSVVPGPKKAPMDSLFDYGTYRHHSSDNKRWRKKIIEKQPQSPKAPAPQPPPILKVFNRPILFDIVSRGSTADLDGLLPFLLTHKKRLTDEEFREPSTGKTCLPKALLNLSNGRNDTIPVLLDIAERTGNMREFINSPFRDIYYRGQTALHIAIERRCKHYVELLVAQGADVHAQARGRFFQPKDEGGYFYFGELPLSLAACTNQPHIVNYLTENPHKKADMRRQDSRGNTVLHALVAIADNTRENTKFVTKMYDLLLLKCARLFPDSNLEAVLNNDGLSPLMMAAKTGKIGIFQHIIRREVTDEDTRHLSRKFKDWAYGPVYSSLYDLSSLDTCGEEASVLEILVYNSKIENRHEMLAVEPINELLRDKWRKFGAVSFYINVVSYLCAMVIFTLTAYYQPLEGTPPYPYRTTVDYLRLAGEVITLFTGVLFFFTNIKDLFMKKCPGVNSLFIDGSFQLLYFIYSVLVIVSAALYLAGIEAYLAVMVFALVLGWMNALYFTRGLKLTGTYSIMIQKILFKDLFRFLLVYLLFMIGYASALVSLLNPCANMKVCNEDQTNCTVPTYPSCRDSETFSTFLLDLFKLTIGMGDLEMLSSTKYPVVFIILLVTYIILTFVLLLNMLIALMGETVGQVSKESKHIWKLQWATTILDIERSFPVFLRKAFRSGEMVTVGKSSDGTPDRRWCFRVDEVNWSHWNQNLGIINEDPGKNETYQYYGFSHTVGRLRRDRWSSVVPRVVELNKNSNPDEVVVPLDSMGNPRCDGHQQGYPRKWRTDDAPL

On to `CC(=O)N[C@@H](CS)C(=O)O` [NAC, N-acetyl-L-cysteine], for which the “behavioral vulnerability after injury” value in the test on C. elegans [1] is on record as “lessens behavioral vulnerability”. In addition, the “calcium transients on recovery after injury” value with C. elegans [2] is “produces calcium transients similar to ‘osm’ mutants”.
In general, IC50 refers to the concentration that inhibits the measured activity by half. On to `O=C(NC1(c2ccccc2)CC1)c1c(CN2CCC(N3CCCCC3)CC2)c(-c2cccc(C(F)(F)F)c2)nc2cc(Br)ccc12` [GSK2193874], for which the half-maximal inhibitory concentration (IC50) is 2 nM at rTRPV4 and 40 nM on hTRPV4.
